For orientation: Kd means the free concentration of one partner at which half of the binding sites on the other are occupied at equilibrium, for simple one-to-one binding.

SMILES strings stand for the structures.

VHL (co-expressed with Elongin B and Elongin C), sequence (P40337 whole entry, looked up): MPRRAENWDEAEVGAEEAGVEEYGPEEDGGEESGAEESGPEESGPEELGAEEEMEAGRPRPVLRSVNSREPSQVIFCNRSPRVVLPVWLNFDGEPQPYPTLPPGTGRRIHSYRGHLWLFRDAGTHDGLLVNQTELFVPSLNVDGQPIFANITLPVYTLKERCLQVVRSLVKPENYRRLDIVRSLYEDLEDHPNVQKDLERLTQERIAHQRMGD
VHL (co-expressed with Elongin B and Elongin C), sequence (Q15370 whole entry partner, looked up): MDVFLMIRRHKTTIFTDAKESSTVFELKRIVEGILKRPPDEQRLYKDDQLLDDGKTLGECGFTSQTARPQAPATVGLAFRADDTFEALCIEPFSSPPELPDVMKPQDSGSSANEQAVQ
VHL (co-expressed with Elongin B and Elongin C), sequence (Q15369 whole entry partner, looked up): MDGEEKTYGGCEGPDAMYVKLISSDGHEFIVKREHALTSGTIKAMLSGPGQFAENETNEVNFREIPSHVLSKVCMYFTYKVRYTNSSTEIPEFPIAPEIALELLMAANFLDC

One test has as its target VHL (co-expressed with Elongin B and Elongin C) (Homo sapiens (Human), UniProt P40337). In words: Measurement of intermolecular interactions using surface plasmon resonance (Biacore T200), Kd value for VHL. The test is classed as binding.
Conditions: not given
The source says: As the device, Biacore T200 (manufactured by GE Healthcare) was used. VHL was obtained by co-expressing Elongin B and Elongin C with a Twin-Strep-tag added to the N-terminus. As the sensor chip, Sensor chip CM5 (manufactured by GE Healthcare) was used. First, Strep-Tactin XT (manufactured by GE Healthcare) was immobilized on the sensor chip by amine coupling. Thereafter, VHL was immobilized using the affinity of Strep-Tactin XT and Twin-Strep-tag, and VHL was further immobilized on the sensor chip by amine coupling.
As the running buffer, a mixed solution of 20 mM HEPES pH 7.5, 150 mM NaCl, 1 mM TCEP, 0.005% Tween 20, and 2% DMSO was used. […] The Contact time and the Dissociation time were determined according to the properties of the compounds. For many compounds, 60 seconds and 120 seconds were respectively used.
A general note: Surface plasmon resonance follows binding to a sensor surface in real time, without labels.
In turn, `COc1cc(C(C(=O)N2C[C@H](O)C[C@H]2c2nc(C(=O)N3CCC(Nc4ccccc4)CC3)c[nH]2)C(C)C)on1` (stereo partly drawn) [Example 150, 1-[(2S,4R)-2-[4-(4-anilinopiperidine-1-carbonyl)-1H-imidazol-2-yl]-4-hydroxypyrrolidin-1-yl]-2-(3-methoxyisoxazol-5-yl)-3-methylbutan-1-one] showed a dissociation constant Kd of 1 to 10 µM.

The same test, now with this note: SPR, immobilized VHL, 25° C.; read-out: Kd.
On to `COc1cc(C(C(=O)N2C[C@H](O)C[C@H]2c2nc(C(=O)N(C)[C@H](C)C(=O)NCc3ccccc3)c[nH]2)C(C)C)on1` (stereo partly drawn) [Example 159, N-[(1R)-2-(benzylamino)-1-methyl-2-oxo-ethyl]-2-[(2S,4R)-4-hydroxy-1-[2-(3-methoxyisoxazol-5-yl)-3-methylbutanoyl]pyrrolidin-2-yl]-N-methyl-1H-imidazole-4-carboxamide], for which the Kd was less than 1 µM.

On to `CNC(=O)c1ccccc1-c1cnc([C@@H]2C[C@@H](O)CN2C(=O)C(c2cc(OC)no2)C(C)C)[nH]1` (stereo partly drawn) [Example 64, 2-[2-[(2S,4R)-4-hydroxy-1-[2-(3-methoxy-1,2-oxazol-5-yl)-3-methylbutanoyl]pyrrolidin-2-yl]-1H-imidazol-5-yl]-N-methylbenzamide], for which the dissociation constant Kd lay within 1 to 10 µM.

Consider `CC(=O)N[C@H](C(=O)N1C[C@H](O)C[C@H]1c1ncc(-c2ccccc2C(F)(F)F)[nH]1)C(C)(C)C` [Example 84, N-[(2S)-1-[(2S,4R)-4-hydroxy-2-[5-[2-(trifluoromethyl)phenyl]-1H-imidazol-2-yl]pyrrolidin-1-yl]-3,3-dimethyl-1-oxobutan-2-yl]acetamide], for which the Kd lay in the range of 1 to 10 µM.

In the case of `COc1cc(C(C(=O)N2C[C@H](O)C[C@H]2c2nc(C(=O)N(C)Cc3ccc(-c4ccnc(C)c4)cc3)c[nH]2)C(C)C)on1` (stereo partly drawn) [Example 153, 2-[(2S,4R)-4-hydroxy-1-[2-(3-methoxyisoxazol-5-yl)-3-methylbutanoyl]pyrrolidin-2-yl]-N-methyl-N-[[4-(2-methyl-4-pyridyl)phenyl]methyl]-1H-imidazole-4-carboxamide], the dissociation constant (Kd) was less than 1 µM.

Turning to `COc1cc(C(C(=O)N2C[C@H](O)C[C@H]2c2nc(C(=O)N(Cc3ccc(-c4scnc4C)cc3)CC(F)(F)F)c[nH]2)C(C)C)on1` (stereo partly drawn) [Example 40, 2-[(2S,4R)-4-hydroxy-1-[2-(3-methoxy-1,2-oxazol-5-yl)-3-methylbutanoyl]pyrrolidin-2-yl]-N-[[4-(4-methyl-1,3-thiazol-5-yl)phenyl]methyl]-N-(22,2-trifluoroethyl)-1H-imidazole-4-carboxamide], the dissociation constant (Kd) was in the range of 1 to 10 µM.

Regarding `COc1cc(C(C(=O)N2C[C@H](O)C[C@H]2c2nc(C(=O)N3CCC(OCc4ccccc4)CC3)c[nH]2)C(C)C)on1` (stereo partly drawn) [Example 141, 1-[(2S,4R)-2-[4-(4-benzyloxypiperidine-1-carbonyl)-1H-imidazol-2-yl]-4-hydroxypyrrolidin-1-yl]-2-(3-methoxyisoxazol-5-yl)-3-methylbutan-1-one], the Kd lay in the range of 1 to 10 µM.

Take `COc1cc(C(C(=O)N2C[C@H](O)C[C@H]2c2ncc(Cc3ccc(C(F)(F)F)cc3)[nH]2)C(C)C)on1` (stereo partly drawn) [Example 79, 1-[(2S,4R)-4-hydroxy-2-[5-[[4-(trifluoromethyl)phenyl]methyl]-1H-imidazol-2-yl]pyrrolidin-1-yl]-2-(3-methoxy-1,2-oxazol-5-yl)-3-methylbutan-1-one]: the Kd was 1 to 10 µM.

Regarding `CC(=O)N[C@H](C(=O)N1C[C@H](O)C[C@H]1c1nc(C(=O)N(C)Cc2ccc3ccccc3c2)c[nH]1)C(C)(C)C` [Example 30, 2-[(2S,4R)-1-[(2S)-2-acetamido-3,3-dimethylbutanoyl]-4-hydroxypyrrolidin-2-yl]-N-methyl-N-(naphthalen-2-ylmethyl)-1H-imidazole-4-carboxamide], the dissociation constant (Kd) is 1 to 10 µM.

On to `CC(=O)N[C@H](C(=O)N1C[C@H](O)C[C@H]1c1nc(C(=O)N(C)Cc2cccnc2)c[nH]1)C(C)(C)C` [Example 53, 2-[(2S,4R)-1-[(2S)-2-acetamido-3,3-dimethylbutanoyl]-4-hydroxypyrrolidin-2-yl]-N-methyl-N-(pyridin-3-ylmethyl)-1H-imidazole-4-carboxamide], for which the Kd fell in the range of 1 to 10 µM.

Take `CC(=O)N[C@H](C(=O)N1C[C@H](O)C[C@H]1c1ncc(-c2ccc(-c3scnc3C)cc2)[nH]1)C(C)(C)C` [Example 89, N-[(2S)-1-[(2S,4R)-4-hydroxy-2-[5-[4-(4-methyl-1,3-thiazol-5-yl)phenyl]-1H-imidazol-2-yl]pyrrolidin-1-yl]-3,3-dimethyl-1-oxobutan-2-yl]acetamide]: the equilibrium dissociation constant (Kd) is 1 to 10 µM.

As to `CC(=O)N[C@H](C(=O)N1C[C@H](O)C[C@H]1c1nc(C(=O)N(C)Cc2ccccc2)c[nH]1)C(C)(C)C` [Example 51, 2-[(2S,4R)-1-[(2S)-2-acetamido-3,3-dimethylbutanoyl]-4-hydroxypyrrolidin-2-yl]-N-benzyl-N-methyl-1H-imidazole-4-carboxamide], the Kd lay in the range of 1 to 10 µM.

Turning to `COc1cc(C(C(=O)N2C[C@H](O)C[C@H]2c2ncc(-c3cccc(-c4scnc4C)c3)[nH]2)C(C)C)on1` (stereo partly drawn) [Example 44, 1-[(2S,4R)-4-hydroxy-2-[5-[3-(4-methyl-1,3-thiazol-5-yl)phenyl]-1H-imidazol-2-yl]pyrrolidin-1-yl]-2-(3-methoxy-1,2-oxazol-5-yl)-3-methylbutan-1-one], the dissociation constant (Kd) was less than 1 µM.

`CNC(=O)c1nc([C@@H]2C[C@@H](O)CN2C(=O)C(c2cc(OC)no2)C(C)C)[nH]c1-c1ccc(OC)cc1` (stereo partly drawn) [Example 75, 2-[(2S,4R)-4-hydroxy-1-[2-(3-methoxy-1,2-oxazol-5-yl)-3-methylbutanoyl]pyrrolidin-2-yl]-5-(4-methoxyphenyl)-N-methyl-1H-imidazole-4-carboxamide]: the dissociation constant Kd fell in the range of 1 to 10 µM.

Turning to `CC(=O)N[C@H](C(=O)N1C[C@H](O)C[C@H]1c1ncc(Cc2cccc(-c3scnc3C)c2)[nH]1)C(C)(C)C` [Example 91, N-[(2S)-1-[(2S,4R)-4-hydroxy-2-[5-[[3-(4-methyl-1,3-thiazol-5-yl)phenyl]methyl]-1H-imidazol-2-yl]pyrrolidin-1-yl]-3,3-dimethyl-1-oxobutan-2-yl]acetamide], the Kd was in the range of 1 to 10 µM.

Regarding `COc1cc(C(C(=O)N2C[C@H](O)C[C@H]2c2nc(C(=O)N(C)CCNc3ccccc3)c[nH]2)C(C)C)on1` (stereo partly drawn) [Example 158, N-(2-anilinoethyl)-2-[(2S,4R)-4-hydroxy-1-[2-(3-methoxyisoxazol-5-yl)-3-methylbutanoyl]pyrrolidin-2-yl]-N-methyl-1H-imidazole-4-carboxamide], the Kd is less than 1 µM.

Turning to `CC(=O)N[C@H](C(=O)N1C[C@H](O)C[C@H]1c1ncc(-c2cccc(-c3scnc3C)c2)[nH]1)C(C)(C)C` [Example 6, N-[(2S)-1-[(2S,4R)-4-hydroxy-2-[5-[3-(4-methyl-1,3-thiazol-5-yl)phenyl]-1H-imidazol-2-yl]pyrrolidin-1-yl]-3,3-dimethyl-1-oxobutan-2-yl]acetamide], the Kd lay within 1 to 10 µM.

With `CC(=O)N[C@H](C(=O)N1C[C@H](O)C[C@H]1c1nc(C(=O)N(C)Cc2cccc(C(F)(F)F)c2)c[nH]1)C(C)(C)C` [Example 21, 2-[(2S,4R)-1-[(2S)-2-acetamido-3,3-dimethylbutanoyl]-4-hydroxypyrrolidin-2-yl]-N-methyl-N-[[3-(trifluoromethyl)phenyl]methyl]-1H-imidazole-4-carboxamide], the Kd lay within 1 to 10 µM.

In the case of `COc1ccc(-c2[nH]c([C@@H]3C[C@@H](O)CN3C(=O)C(c3cc(OC)no3)C(C)C)nc2C(F)(F)F)cc1` (stereo partly drawn) [Example 74, 1-[(2S,4R)-4-hydroxy-2-[5-(4-methoxyphenyl)-4-(trifluoromethyl)-1H-imidazol-2-yl]pyrrolidin-1-yl]-2-(3-methoxy-1,2-oxazol-5-yl)-3-methylbutan-1-one], the Kd lay in the range of 1 to 10 µM.

For the compound `COc1cc(C(C(=O)N2C[C@H](O)C[C@H]2c2nc(C(=O)N3CCC(c4ccncc4)CC3)c[nH]2)C(C)C)on1` (stereo partly drawn) [Example 139, 1-[(2S,4R)-4-hydroxy-2-[4-[4-(4-pyridyl)piperidine-1-carbonyl]-1H-imidazol-2-yl]pyrrolidin-1-yl]-2-(3-methoxyisoxazol-5-yl)-3-methylbutan-1-one], the Kd is 1 to 10 µM.

In the case of `COc1cccc(Cc2cnc([C@@H]3C[C@@H](O)CN3C(=O)C(c3cc(OC)no3)C(C)C)[nH]2)c1` (stereo partly drawn) [Example 63, 1-[(2S,4R)-4-hydroxy-2-[5-[(3-methoxyphenyl)methyl]-1H-imidazol-2-yl]pyrrolidin-1-yl]-2-(3-methoxy-1,2-oxazol-5-yl)-3-methylbutan-1-one], the Kd was in the range of 1 to 10 µM.

Consider `COc1cc(C(C(=O)N2C[C@H](O)C[C@H]2c2nc(C(=O)N(C)Cc3ccc(-c4ccc(C)nc4)cc3)c[nH]2)C(C)C)on1` (stereo partly drawn) [Example 154, 2-[(2S,4R)-4-hydroxy-1-[2-(3-methoxyisoxazol-5-yl)-3-methylbutanoyl]pyrrolidin-2-yl]-N-methyl-N-[[4-(6-methyl-3-pyridyl)phenyl]methyl]-1H-imidazole-4-carboxamide], for which the Kd was less than 1 µM.

Turning to `CC(=O)N[C@H](C(=O)N1C[C@H](O)C[C@H]1c1nc(C(=O)N(C)Cc2ccncc2)c[nH]1)C(C)(C)C` [Example 49, 2-[(2S,4R)-1-[(2S)-2-acetamido-3,3-dimethylbutanoyl]-4-hydroxypyrrolidin-2-yl]-N-methyl-N-(pyridin-4-ylmethyl)-1H-imidazole-4-carboxamide], the dissociation constant Kd fell in the range of 1 to 10 µM.

With `CC(=O)N[C@H](C(=O)N1C[C@H](O)C[C@H]1c1nc(C(=O)N(C)Cc2cccc3ccccc23)c[nH]1)C(C)(C)C` [Example 31, 2-[(2S,4R)-1-[(2S)-2-acetamido-3,3-dimethylbutanoyl]-4-hydroxypyrrolidin-2-yl]-N-methyl-N-(naphthalen-1-ylmethyl)-1H-imidazole-4-carboxamide], the equilibrium dissociation constant (Kd) was in the range of 1 to 10 µM.

The values above are taken from patent publication US20230312542A1, “HYDROXYPYRROLIDINE DERIVATIVE AND MEDICINAL APPLICATION THEREOF” (MITSUBISHI TANABE PHARMA CORPORATION, priority 2020, published 2023).
